This is an account of results in publication PMC1082716, “Blockade of chemokine-induced signalling inhibits CCR5-dependent HIV infection in vitro without blocking gp120/CCR5 interaction” (Retrovirology, 2005).

Assay [1] concerns SDF-1α induced chemotaxis. Kind of assay: SDF-1α induced chemotaxis (ChemoTx transwell). The class given is cell-based. The settings on record: 100 ng/ml SDF1α; various concentrations of inhibitor in both compartments; 5 × 10^4 cells per well; 2 h, 37°C; MTT; triplicate. As to the method:
Figure 2 Effect of Peptide 3 on gp120:V3 loop peptide binding to cells. (a) The binding of 100 μM N-terminal biotinylated gp120:V3(IIIb) to THP-1 cells was measured in the presence of various concentrations of peptide 3. […] (b) Chemotaxis in response to 100 ng/ml SDF1α was measured in the presence of various concentrations of peptide 3. […] (e) As for (a) except that the effect of Peptide 3 on the binding of gp120:V3(BaL) to THP-1 cells was determined. (f) As for (b) except that the effect of Peptide 3 on chemotaxis induced by 25 ng/ml MIP1α was determined. All binding reactions were performed with 10^6 cells in 100 μl of binding medium at 4°C. Chemotaxis assays were performed with 5 × 10^4 cells per well. Values are mean ± SEM of triplicate determinations.
Chemotaxis experiments were performed essentially as previously described, using the ChemoTx disposable 96-well transwell migration plates, with PVP-free membrane (6 μm pore size). Chemoattractant (lower compartment) and cells upper compartment) were suspended in Gey's Balanced salt solution + 1 mg/ml BSA. […] Migration was allowed to proceed for 2 hours at 37°C. […] Each condition was determined in triplicate, and the number of cells migrating in the absence of chemoattractant was subtracted to determine the chemokine-dependent chemotaxis which was reported.

The next assay deals with T1, CXCR4 (Homo sapiens, UniProt P61073).
T1 construct: CXCR4, which is expressed on both THP-1 and Jurkat cells, but at higher levels on the T-cell line; endogenous in cells; host or cells: Jurkat T-cells (whole cells, 10^6 per well, 4°C)
Kind of assay: Specific binding of biotinylated gp120:V3(IIIb) peptide to Jurkat cells. The settings on record: 100 μM biotinylated gp120:V3(IIIb); various concentrations of inhibitor; 10^6 cells in 100 μl, 4°C; triplicate.

Assay [2] relates to chemokine-receptor-induced ERK activity. The settings on record: MEK inhibitor; ref [25]; cited from earlier work. The text has this:
(§1) It has been proposed that this chemotactic signalling might play a role during HIV infection in vivo, possibly by recruiting susceptible T-cells to sites of viral replication. In other retroviruses envelope/receptor interactions are known to be mitogenic and this may facilitate nuclear translocation and integration of the provirus. In HIV, however, it is not known whether the ability to productively engage the chemokine receptors in this way plays any direct role in acute viral entry and subsequent productive infection of the target cell.

In the next assay the test system is HIV. The settings on record: cited from earlier work. The text has this:
It has been proposed that this chemotactic signalling might play a role during HIV infection in vivo, possibly by recruiting susceptible T-cells to sites of viral replication. In other retroviruses envelope/receptor interactions are known to be mitogenic and this may facilitate nuclear translocation and integration of the provirus. In HIV, however, it is not known whether the ability to productively engage the chemokine receptors in this way plays any direct role in acute viral entry and subsequent productive infection of the target cell. […] Since BSCIs, such as Peptide 3, ...

Assay [3] has as its system HIV (IIIb). Put plainly: HIV (IIIb) replication in Jurkat T-cells, supernatant reverse transcriptase activity. Particulars: HIV-1 IIIb, Jurkat; SDF1α 100 ng/ml; two weeks; average of six separate experiments. It counts as cell-based. On the procedure:
HIV infection of Jurkat T-cells using the laboratory-adapted T-tropic isolate IIIb was monitored using two different assays. Firstly, Jurkat T-cells in 96-well plates were pre-treated with either Peptide 3, vehicle (as a negative control) or SDF1α (as a positive control) for 4 hours, then exposed to HIV virus (10^6 TCID50) and pulsed at 2–3 day intervals with Peptide 3, SDF1α or medium alone as appropriate. After two weeks in culture, the extent of viral infection was assayed by measuring the reverse transcriptase activity in the supernatant, as a measure of viral replication in the culture In six separate experiments, Peptide 3 (100 μM) had no effect on virus replication following HIV exposure (Fig 3a), while SDF1α inhibited reverse transcriptase activity by an average of 75%. No effect was seen on cell viability under any of the treatment conditions.
HIV-1 stocks were prepared in the following manner. HIV-1 IIIb (provided by the MRC AIDS Reagent Programme) was used to infect Jurkat T cells and the progression of infection was monitored using the reverse transcriptase assay for 10–14 days. […] Stocks of HIV-1 MN strain were prepared in a similar manner, except that H9 T cells were used and the progression of infection was monitored by immunofluoresence (because of the low RT activity) in this strain. […]

The test system of the next assay is HIV strain MN. Kind of assay: HIV (MN) infection of THP-1 cells, p24gag immunofluorescence. It counts as cell-based, HIV-1. Particulars: HIV strain MN; Peptide 3 100 μM, MIP1α 100 ng/ml, SDF1α 100 ng/ml; 72 h; p24gag immunofluorescence. As to the method:
However, it was possible to assess HIV infectivity of THP-1 cells using high sensitivity immunofluorescent detection of p24^gag. THP-1 cells were differentiated with hydrocortisone and PMA, then treated with TNFα, resulting in adherent monolayers on glass chamber slides. The THP-1 cells were then treated with either Peptide 3 (100 μM), MIP1α (100 ng/ml) or SDF1α (100 ng/ml) as for the Jurkat cells. THP-1 cells were infected with HIV strain MN at a concentration previously validated to produce easily detectable infection and grown for 72 h prior to fixation and staining for p24^gag. In contrast to the findings with HIV strain IIIb infection of Jurkat T cells, Peptide 3 inhibited infection of THP-1 cells by more than 80% (Fig 3c), very similar to the effect of MIP1α.
THP-1 cells were differentiated prior to infection with hydrocortisone and PMA in 8-well chamber slides. Sixteen hours prior to infection, TNFα was added (100 ng/ml). Twelve hours later, the medium was aspirated and replaced with fresh medium containing the test peptides or chemokines as appropriate. After a further four hours, virus from the frozen stocks was adeed to the cells, which were the processed for immunofluoresence between 28 h and 72 h after infection.
Jurkat cells following HIV infection were attached to 8-well chamber slides (Becton-Dickinson) by spinning the slides using a plate rotor in a Labofuge centrifuge (Heraeus) at 3,000 × g for 5 minutes. Attached Jurkat cells or THP-1 cells were then fixed by dipping the slides into ice-cold 70% ethanol for 90 seconds. Non-specific binding was blocked by incubation with 3% fatty acid-free BSA in TBS for 1 hour at room temprature. Cells were incubated with the mouse monoclonal anti-HIV-1 p24^gag antibody EH12E1 (ref 38;AIDS Reagent Program, NIBSC) at 10 μg/ml in 3% BSA in TBS at room temperature overnight. Unbound antibody was removed with 3 × 3 min washes in PBS, and bound antibody was then fixed to the slide by incubation with 3.8% phosphate buffered formalin pH7.2 for 10 mins at room temperature, followed by 3 further 3 min washes in PBS. Bound antibody was visualised using donkey anti-mouse IgG FITC conjugate (715-095-150; Jackson Immunoresearch) at 30 μg/ml in 3% BSA/TBS + 1 ng/ml Hoescht 33342 for 6 hours at room temperature. Twelve fields of view (100× magnification) were captured from each well of the chamber slide using an Olympus Provis AX electronic microscope connected to a Power Macintosh 8500, running OpenLab image analysis software (Improvision), under both FITC illumination conditions (NIBA filter block; λex = 470–490 nm, dichroic mirror = 505 nm, λem = 515–550 nm) and UV illumination conditions (Chroma 31000; λex = 340–380 nm, dichroic mirror = 400 nm, λem = 435–485 nm). Images were acquired with a Hamamatsu C4742-05 monochrome digital camera with 10-bit depth in a 1280-1024 pixel field connected to a DIG Snapper frame grabber. The exposure time, amplifier gain and offset values were controlled by the OpenLab software and were held constant throughout the experiment. A background (an image captured without a slide under the objective) was digitally subtracted from every image. A threshold was then applied to each image which was the lowest threhold that detected <1% of the pixels of an image of uninfected cells stained under identical conditions. The number of objects exceeding this threshold in each field of view were counted. […]

Assay [4] relates to HIV (IIIb). Put plainly: HIV (IIIb) infection of Jurkat T-cells, p24gag immunofluorescence. The class given is cell-based. Particulars: SDF1α 100 ng/ml, approximately 48 h after infection, 12 fields of view from each of two wells. As to the method:
HIV infection of Jurkat T-cells was also monitored by high sensitivity quantitative immunofluoresence detection of viral p24^gag expression. Jurkat cells were infected with HIV in the presence or absence of Peptide 3 (100 μM) or SDF1α (100 ng/ml) as described above. Approximately 48 h after infection, the cells were attached to glass slides using a cytospin and then fixed by immersion in ice-cold 70% ethanol for 90 seconds. Expression of p24^gag was determined using quantitative immunofluoresence as previously described, except that the primary antibody was post-fixed to the section using paraformaldehyde to increase the sensitivity of the technique (see Methods). Viral infectivity was expressed as the number of cells stained for p24^gag expressed as a proportion of the total number of cells (detected using Hoechst 33342 nuclear dye). […]
Jurkat cells following HIV infection were attached to 8-well chamber slides (Becton-Dickinson) by spinning the slides using a plate rotor in a Labofuge centrifuge (Heraeus) at 3,000 × g for 5 minutes. […] A threshold was then applied to each image which was the lowest threhold that detected <1% of the pixels of an image of uninfected cells stained under identical conditions. The number of objects exceeding this threshold in each field of view were counted. […]

The test system of assay [5] is Gi-mediated signalling through chemokine receptors. The settings on record: ref [24]; cited from earlier work.
Text: as §1

T1 sequence (P61073 whole entry): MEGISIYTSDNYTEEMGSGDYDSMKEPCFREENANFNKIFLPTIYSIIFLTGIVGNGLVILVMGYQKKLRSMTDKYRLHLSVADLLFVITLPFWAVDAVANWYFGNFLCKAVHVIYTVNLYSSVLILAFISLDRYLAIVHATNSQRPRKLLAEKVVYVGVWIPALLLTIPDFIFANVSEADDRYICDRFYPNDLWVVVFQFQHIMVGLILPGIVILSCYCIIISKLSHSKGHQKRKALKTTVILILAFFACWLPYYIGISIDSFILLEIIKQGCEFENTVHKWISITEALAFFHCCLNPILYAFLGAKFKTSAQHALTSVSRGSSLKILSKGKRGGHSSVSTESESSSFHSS

Consider `c1cc(CN2CCCNCCNCCCNCC2)ccc1CN1CCCNCCNCCCNCC1` [AMD3100, reference compound], for which the “Effect on SDF-1α induced chemotaxis” value in assay [1] was “blocked”. The “Effect on binding of gp120:V3(IIIb) to Jurkat cells” value on CXCR4 was “blocked”.
With `N#CC(=C(/N)Sc1ccccc1N)/C(C#N)=C(/N)Sc1ccccc1N` [Peptide U0126], the “Effect on chemokine-receptor-induced ERK activity” value in assay [2] is recorded as “block”. For the same molecule, in the assay with HIV (MEK inhibitor, ref [25]), the “Effect on HIV infection in vitro” value was “block”.
As to SDF1α [reference compound], the “Inhibition of reverse transcriptase activity” value in the assay on HIV (IIIb) [3] is reported as 75%. In the assay with HIV strain MN, the “Effect on HIV infection of THP-1 cells (in words)” value was “no statistically significant effect”. Besides, the “Inhibition of viral infectivity (p24gag)” value in the assay on HIV (IIIb) [4] is listed as “more than 80%”.
As to pertussis toxin, in assay [5], the “Effect on Gi-mediated signalling through chemokine receptors” value is reported as “blocks”. Also, in the assay on HIV (ref [24] (Guntermann), [25] (Montes; similar results)), the “Effect on cellular infection with HIV in vitro” value was “block cellular infection with HIV in vitro”.

B1: MIP1α: chemokine used at 100 ng/ml (protein, UniProt P10147 24-92, looked up)
C-C motif chemokine 3: SLAADTPTACCFSYTSRQIPQNFIADYFETSSQCSKPGVIFLTKRSRQVCADPSEEWVQKYVSDLELSA
For the molecule B1, in the assay with HIV strain MN, the “Effect on HIV infection of THP-1 cells (in words)” value is on record as “very similar”.
